Two compounds from US6288113A, “Angiogenesis promoters” (Welfide Corporation, priority 1997, dated 2001) can be followed below.

Common to all, as to type: in vivo
Assay [1] relates to angiogenesis. The experiment in a line: Rat sponge model, hemoglobin content of sponge (Experimental Example 1). The protocol:
(§1) As the promoter of the present invention, the AS-containing lipid emulsion of Example 4 was diluted with a 10% lipid emulsion (Intralipos®, manufactured by the Green Cross Corporation, produced and sold by Yoshitomi Pharmaceutical Industries, Ltd. since April 1, 1998) and used. For the vehicle administration control group, the above-mentioned 10% lipid emulsion alone was used.
(§2) Rats were anesthetized and the dorsal median line was incised for about 1 cm and an air pocket was made subcutaneously at about 2.5 cm toward the tail side with a Kocher clamp. A hemostatic gelatin sponge (Spongel®, 1.0×1.0×0.5 cm; manufactured by Yamanouchi Pharmaceutical Co., Ltd.) infiltrated with physiological saline was implanted therein to prepare rat sponge models.
The incisive region was sutured, antisepticized and intramulscular injection of an antibiotic was given, after which the rats were returned to the breeding cages. Each preparation was bolus administered via the tail vein once a day from the day of sponge implanting to day 4. After 4 days from the implanting, 8 rats per group were sacrificed. The back was opened, and the surrounding tissue was removed trying not to damage the implanted sponge and the surface of the sponge was photographed. All the sponges were taken out and a 0.1M aqueous ammonia (2 ml) was added. The sponges were stood for 4 hr to extract hemoglobin in the sponge. Hemoglobin in the extract (100 μl) was quantitated using an assay kit (hemoglobin B-TESTWAKO; manufactured by Wako Pure Chemical Industries, Ltd.). The amount of the hemoglobin in the sponge was calculated and used as the index of angiogenesis.
For the evaluation of the angiogenic effect, a multiple comparison test by Dunnett method was performed to examine significant difference, using the vehicle administration group as a control. The significance was ascribed at less than 5% risk rate.

Assay [2] has as its system angiogenesis. The experiment in a line: Rat sponge model, observation of photograph of sponge surface (Experimental Example 1). To be noted: AS administration group; after 4 days; visual observation. Here is the method:
as §1, §2
The incisive region was sutured, antisepticized and intramulscular injection of an antibiotic was given, after which the rats were returned to the breeding cages. Each preparation was bolus administered via the tail vein once a day from the day of sponge implanting to day 4. After 4 days from the implanting, 8 rats per group were sacrificed. […] Hemoglobin in the extract (100 μl) was quantitated using an assay kit (hemoglobin B-TESTWAKO; manufactured by Wako Pure Chemical Industries, Ltd.). The amount of the hemoglobin in the sponge was calculated and used as the index of angiogenesis.

In assay [3] the test system is angiogenesis by b-FGF. Put plainly: Rat sponge model with b-FGF, hemoglobin content of sponge (Experimental Example 2). To be noted: for Hemoglobin in sponge at 4 days after implanting: mean ± standard error. Here is the method:
(§3) In the same manner as in Experimental Example 1, as the promoter of the present invention, the AS-containing lipid emulsion of Example 4 was diluted with a 10% lipid emulsion (Intralipos®, manufactured by the Green Cross Corporation, produced and sold by Yoshitomi Pharmaceutical Industries, Ltd. since Apr. 1, 1998) and used. For the vehicle administration control group, the above-mentioned 10% lipid emulsion alone was used.
(§4) Using a hemostatic gelatin sponge infiltrated with physiological saline containing 0.1% BSA (bovine serum albumin) or b-FGF solution (b-FGF 1 mg/ml solution, 100 μl, diluted 10-fold with physiological saline containing 0.1% BSA), and in the same manner as in Experimental Example 1, rat sponge models (6-8 animals per group) were prepared. The vehicle and AS were bolus administered via the tail vein once a day at the volume of 1 ml/kg from the day of sponge implanting to day 4. After 4 days from the implanting, the surface of the sponge was photographed, and the amount of the hemoglobin in the sponge was calculated in the same manner as in Experimental Example 1.
For the evaluation of the angiogenic effect, a multiple comparison test (group 1 versus groups 2, 3) by Dunnett method was performed to examine significant difference, using the vehicle alone administration group (BSA-containing physiological saline in sponge +10% lipid emulsion intravenous injection) as a control. For the evaluation of the relationship between AS and b-FGF, an unpaired t-test (group 2 versus group 3) was performed using the b-FGF alone administration group as a control to examine significant difference. The significance was ascribed at less than 5% risk rate.

Assay [4] relates to angiogenesis by b-FGF. Put plainly: Rat sponge model with b-FGF, observation of photograph of sponge surface (Experimental Example 2). The protocol:
as §3, §4

As to `CCCCC[C@H](O)/C=C/[C@@H]1C(CCCCCCC(=O)OCCCC)=C(OC(=O)CCC)C[C@H]1O` [AS, butyl 9-butyryloxy-11α,15S-dihydroxyprosta-8,13E-dien-1-oate], the “Hemoglobin in sponge at 4 days after implanting” value is given as 4.4 ± 0.8 mg/sponge in the assay on angiogenesis [1] (AS 3 μg/kg i.v. bolus via tail vein once a day to day 4, mean ± standard error, P < 0.05 vs vehicle 1.5 ± 0.9 (Dunnett)) and 20.7 ± 3.1 mg/sponge in the assay with angiogenesis by b-FGF [3] (group 3: AS 3 μg/kg i.v. with b-FGF 1 μg/sponge, n 7, P < 0.05 vs b-FGF alone (unpaired t-test)). In addition, the “hemoglobin content compared with the vehicle administration group” value in the assay with angiogenesis [1] (AS 3 μg/kg i.v. bolus, consecutive, result in words) is “increased the hemoglobin content compared with the vehicle administration group and a significant difference was observed”. Moreover, the promotion of angiogenesis result in the assay with angiogenesis [1] (summary of hemoglobin content and photograph observation, Experimental Example 1) is recorded as “promoted angiogenesis”. Besides, in the assay on angiogenesis [2], the “blood vessels on sponge surface (FIG. 2)” value was “a noticeable blood vessel network that allows visual observation was found, showing superior angiogenesis”. In addition, in the assay with angiogenesis by b-FGF [3] (AS and b-FGF co-administered, summary), the “angiogenesis promoting effect by b-FGF” value is recorded as “potentiated”. Moreover, the “hemoglobin content of sponge as compared with the b-FGF alone administration group” value with angiogenesis by b-FGF [3] (AS and b-FGF co-administration group, result in words) is recorded as “increased significantly”. Further, the “blood vessels on sponge surface (FIG. 5)” value in the assay on angiogenesis by b-FGF [4] (AS and b-FGF co-administration group (group 3)) is given as “more noticeable formation of a blood vessel network was observed, with larger blood vessel diameters”.

Consider “b-FGF: growth factor, basic fibloblast growth factor”, for which the “hemoglobin content of sponge” value in the assay with angiogenesis by b-FGF [3] (b-FGF alone administration group, after 4 days, result in words) is given as “increased”. Moreover, in the assay with angiogenesis by b-FGF [3] (group 2: b-FGF 1 μg/sponge, 10% lipid emulsion i.v. 1 ml/kg, n 8, vehicle alone 6.5 ± 0.7), the “Hemoglobin in sponge at 4 days after implanting” value stood at 11.8 ± 0.9 mg/sponge. The “blood vessels on sponge surface (FIG. 4)” value in the assay with angiogenesis by b-FGF [4] (b-FGF administration group (group 2)) is “a number of blood vessels were observed on the surface of the sponge, showing formation of a blood vessel network”.
